From publication PMC11868595, “Safety, pharmacokinetics and efficacy of HA121-28 in patients with advanced solid tumors and RET fusion-positive non-small-cell lung cancer: a multicenter, open-label, single-arm phase 1/2 trial” (Signal Transduction and Targeted Therapy, 2025)
Where two headings read alike, the source gives them in different places.

Tests used:
FGFR1-3 = type: biochemical
CFPAC-1 cells = assay: Tumor cell proliferation in vitro; type: cell-based
[1] = Excretion after gastric lavage; type: in vivo, rats
[2] = system: RET fusion-positive NSCLC; assay: Tumor response by RECIST 1.1 (ORR, DCR, DOR, PFS), phase 1/2; type: in vivo, human; conditions: for Best response: Complete response / Best response: Not evaluable / Best response: Partial response / Best response: Progressive disease / Best response: Stable disease: ERS, investigator-assessed RECIST 1.1; for PFS: patient with previous RET-TKI treatment
Procedure: Treatment-emergent adverse events (TEAEs) were documented during the entire study period. The predefined adverse event of special interest (AESI) was ≥ grade 3 prolonged QT interval. Tumor imaging was performed using contrast-enhanced computed tomography or magnetic resonance imaging at screening, Day 28 of the first cycle, then approximately every eight weeks till the end of the study for phase 1; in phase 2, imaging was scheduled at screening, and every eight weeks during the first 40 weeks, followed by every 12 weeks for the rest of the study period. RECIST 1.1 was used by the independent review committee or investigators for assessment of tumor response. After the original assessment, a repeated assessment was required around four weeks later to confirm a complete or partial response.
The primary endpoints of phase 1 were to investigate the MTD, dose-limiting toxicities, and the incidence and severity of TEAEs. Each TEAE was graded according to the Common Terminology Criteria for Adverse Events (CTCAE, version 5.0) and coded by Medical Dictionary for Regulatory Activities (MedDRA, version 21.0). The secondary endpoints included calculating PK parameters, assessing the ORR and DCR at the recommended dose by investigators as per RECIST 1.1. The exploratory endpoint was PFS.
The primary endpoint of phase 2 was the independent review committee evaluated ORR using RECIST 1.1. The secondary endpoints included investigators assessed ORR; DCR, PFS, and DOR by the independent review committee and investigators; overall survival and TEAEs. Each TEAE was graded according to CTCAE version 5.0 and coded by MedDRA (version 24.0). The phase 2 trial is ongoing; not all endpoints are reported in this paper.
The full analysis set consisted of all patients who had administered at least one dose of HA121-28 and was used to calculate the baseline characteristics, OS, and PFS results. The safety set included all patients who had administered at least one dose of the HA121-28 and had at least one safety-related observation. This population was used for analysis of TEAEs. The efficacy evaluable set consisted of patients who had administered at least one dose of HA121-28 and completed at least one efficacy assessment following study treatment. This population was used to calculate the ORR, DOR, and DCR. In addition, the ORRs for subgroup analyses, including age ( < 60, ≥60), ECOG PS (0 or 1), gender (male or female), prior treatment with TKIs (yes or no), brain or liver metastasis (yes or no), were also calculated. The plasma drug concentration-time profile was characterized using PK concentration set that included patients who had administered at least one dose of HA121-28 and had at least one measurable plasma concentration of HA121-28. The PK parameter set was used to calculate PK parameters, which consisted of patients who had administered at least one dose of HA121-28 with at least one valid PK parameter. ORR and DCR were described using the Clopper-Pearson method with two-sided 95% confidence intervals (CIs). PFS and DOR were assessed using the Kaplan-Meier method, including an estimate of the median, along with corresponding 95% CIs. Statistical analyses of clinical outcomes were conducted by SAS (version 9.4 or later) and R software 4.1.0 for genomic DNA from pre-treatment tumor tissue (http://cran.r-project.org).

[3] = RET fusion-positive NSCLC, ≥450 mg q.d.

SMILES: COc1cc2c(Nc3ccc(Br)cc3F)ncnc2cc1OCCCCN(C)C.Cl.Cl [HA121-28, N-(4-bromo-2-fluorophenyl)-7-(4-(dimethylamino)butoxy)-6-methoxy quinazolin-4-amine dihydrochloride]
- IC50 (FGFR1-3; FGFR1, read-out: IC50, FGFR1): 32.3 nM
- IC50 (FGFR1-3; FGFR2, read-out: IC50, FGFR2): 20.4 nM
- IC50 (FGFR1-3; FGFR3, read-out: IC50, FGFR3): 23.1 nM
- IC50 (CFPAC-1 cells): 207 ± 38.3 nM
- excretion in original form ([1]; bile): 3.91%
- excretion in original form ([1]; feces): 27.5%
- excretion in original form ([1]; urine): 2.18%
- total excretion rate ([1]; urine and feces): 29.7%
- tumor response ([2]; 73 patients with non-RET fusion tumors, phase 1 dose expansion): no response
- confirmed ORR (investigator-assessed) ([2]; 97 RET fusion-positive NSCLC patients, ≥450 mg q.d.): 26.8%
- Best response: Complete response ([2]; All (N=97)): 0 No. (%)
- Best response: Not evaluable ([2]; All (N=97)): 4 (4.1) No. (%)
- Best response: Partial response ([2]; All (N=97)): 26 (26.8) No. (%)
- Best response: Progressive disease ([2]; All (N=97)): 23 (23.7) No. (%)
- Best response: Stable disease ([2]; All (N=97)): 44 (45.4) No. (%)
- Best response: Complete response ([2]; CCDC6 (N=15)): 0 No. (%)
- Best response: Not evaluable ([2]; CCDC6 (N=15)): 1 (6.7) No. (%)
- Best response: Partial response ([2]; CCDC6 (N=15)): 7 (46.7) No. (%)
- Best response: Progressive disease ([2]; CCDC6 (N=15)): 1 (6.7) No. (%)
- Best response: Stable disease ([2]; CCDC6 (N=15)): 6 (40.0) No. (%)
- confirmed ORR ([2]; CCDC6-RET fusion patients): 46.7%
- median DOR ([2]; CCDC6-RET fusion patients): 14.0 months
- median PFS ([2]; CCDC6-RET fusion patients): 14.9 months
- Best response: Complete response ([2]; KIF5B (N=71)): 0 No. (%)
- Best response: Not evaluable ([2]; KIF5B (N=71)): 2 (2.8) No. (%)
- Best response: Partial response ([2]; KIF5B (N=71)): 18 (25.4) No. (%)
- Best response: Progressive disease ([2]; KIF5B (N=71)): 21 (29.6) No. (%)
- Best response: Stable disease ([2]; KIF5B (N=71)): 30 (42.3) No. (%)
- confirmed ORR ([2]; KIF5B-RET fusion patients): 25.4%
- median DOR ([2]; KIF5B-RET fusion patients): 7.7 months
- median PFS ([2]; KIF5B-RET fusion patients): 5.5 months
- Best response: Complete response ([2]; Other (N=11)): 0 No. (%)
- Best response: Not evaluable ([2]; Other (N=11)): 1 (9.1) No. (%)
- Best response: Partial response ([2]; Other (N=11)): 1 (9.1) No. (%)
- Best response: Progressive disease ([2]; Other (N=11)): 1 (9.1) No. (%)
- Best response: Stable disease ([2]; Other (N=11)): 8 (72.7) No. (%)
- patients with shrinkage in tumor size ([2]; RET fusion-positive NSCLC (66 of 97)): 68.0%
- DCR [2, 3]: 72.2%
- median PFS [2, 3]: 5.5 months
- patients with partial response ([2]; TP53 wild-type group (5 out of 15)): 33.3%
- patients with partial response ([2]; concurrent TP53 mutation (1 out of 11)): 9.1%
- PFS ([2]; SD, dosing 176 days): 5.52 months
- PFS ([2]; confirmed PR, dosing 167 days): 5.36 months
- patients with partial response ([2]; phase 1, advanced RET fusion NSCLC with at least one efficacy evaluation, as of April 28, 2021): 7 of 17
- ORR ([2]; subgroup ECOG PS of 0): 35.5%
- ORR ([2]; subgroup age < 60): 30.9%
- ORR ([2]; subgroup with liver metastasis): 37.5%
